# Measurements published in US10358439B2, “DNA binding agents with a minor groove binding tail” (Board of Regents, The University of Texas System, priority 2015, dated 2019).
# Where two headings read alike, the source gives them in different places.
# Legend:
# D54 = test: in vitro antitumor activity, D54; format: cell-based; conditions: D54 cells
# Colo357-FG = test: in vitro antitumor activity, Colo357-FG; format: cell-based; conditions: Colo357-FG cells
# H441 = test: in vitro antitumor activity, H441; format: cell-based; conditions: H441 cells
# U87 = test: in vitro antitumor activity, U87; format: cell-based; conditions: U87 (U87-MG brain tumor) cells
# [1] = in vitro IC50, cells not stated; format: cell-based; conditions: cell lines not stated
# [2] = Mouse Plasma PK and Brain Distribution Study following Single IV Dose; format: in vivo, male CD1 mice; set-up: Mean peak plasma concentration / area-under-the-curve: unit not given here; conditions: mice, 10 mg/kg IV; for Kp / Vd: iv, 10 mg/kg
# Description: (§1) Mouse Plasma PK and Brain Distribution Study following Single IV Dose—WP1244 was administered intravenously by rapid IV push to 55 male CD1 mice (Charles River Lab, Wilmington, Mass.) at a dose of 10 mg/kg. Each mouse (mean weight 22.0 g, range 20.7-26.6 g) was given a volume of 0.1 mL of a 2.2 mg/mL WP1244 solution formulated in DMSO:water (50:50, v/v). Five animals were assigned to one of 11 groups segregated by time, spanning the length of the 24-hour study period. One cohort of animals was sacrificed at each of the following time points and mouse plasma and tissues of interest, were harvested for analysis. The time points were as follows: 5, 15, 30, 45 minutes, 1, 2, 4, 6, 8, 12, and 24 hours following administration by intravenous bolus. Samples (plasma and tissues) were frozen and stored at −80° C. until subsequent analysis by LC/MS/MS.
# Sample preparation and drug isolation (extraction) from plasma utilized the same fundamental approach used in pharmacokinetic and biodistribution studies of other anthracyclines previously conducted by the inventors. Briefly, WP1244 was extracted from a volume (0.1 mL) of mouse plasma using a solid-phase extraction method. Liquid-liquid extraction by a chloroform: 2-propanol (80:20, v/v) mixture was utilized to isolate the analyte from mouse brain tissue. An 8-point plasma extracted calibration curve was created to span a dynamic concentration range of WP1244 of 1-1000 ng/mL (1, 2.5, 10, 25, 50, 100, 500, and 1000 ng/mL) for the quantitative measurement of WP1244 extracted from mouse plasma, while a brain tissue derived calibration curve was utilized for determination of brain tissue concentrations of drug over a range of 10-1000 ng/g tissue. Samples exceeding the dynamic range of the calibration curve were re-analyzed following dilution in extraction buffers.
# Quantitative sample analysis was performed by chromatographic separation and identification/quantification using mass spectrometry (LC/MS/MS); the specific instrumentation used was an Agilent HP1100 Series liquid chromatograph in tandem with a Micromass Quattro Micro (Micro2) mass spectrometer. A Phenomenex® Luna C5, 4.6×50 mm, 3.5 μm) analytical column was used for chromatographic separation and peak resolution. As mentioned before, sample analysis utilized the same fundamental validated methods developed previously for the quantitative analysis of other anthracyclines studied by the inventors.
# [3] = acute clinically observable toxicity after IV bolus; format: in vivo; conditions: mice, 10 mg/kg intravenous bolus, up to 24 hours following dosing
# Description: as §1
# [4] = 5-mice pilot single-dose pharmacokinetic study, plasma and brain; format: in vivo; conditions: mouse, iv, 5 mg/kg, one hour following a single ~5 mg/kg intravenous dose
# Description: WP1244 has a relatively high molecular weight (MW) (981.3) having a polyamide moiety attached to the amino sugar. A previous 5-mice pilot study performed with WP1244 confirmed the presence of WP1244 in murine brain tissue, and mean normalized concentrations in the plasma and brain were 283+/−128 ng/mL (range 159-487 ng/mL) and 122+/−67.6 ng/g (range 43-203 ng/g), respectively, one hour following a single ˜5 mg/kg intravenous dose. This pilot single-dose pharmacokinetic study was followed by a complete single-dose pharmacokinetic/biodistribution study which was designed to better elucidate the plasma time-course and tissue biodistribution, particularly in brain tissue, of WP1244. This study involve the use of 55 animals and a dose of 10 mg/kg. The experiment was conducted over a 24 h interval and the methods and results are outlined below.
compound,measurement,setting,value
"COc1cccc2c1C(=O)c1c(O)c3c(c(O)c1C2=O)C[C@@](O)(C(C)=O)C[C@@H]3O[C@H]1C[C@H](N)[C@H](O)[C@H](C)O1 [DNR, reference compound]",IC50,D54,231 nM
same,IC50,Colo357-FG,46.4 nM
same,IC50,H441,15.9 nM
same,IC50,U87,143 nM
COc1cccc2c1C(=O)c1c(O)c3c(c(O)c1C2=O)C[C@](O)(C(C)=O)C[C@H]3OC1CC(NCc2ccc(NC(=O)c3cc(NC(=O)c4cc(NC(=O)c5cc([N+](=O)[O-])cn5C)cn4C)cn3C)cc2)C(O)C(C)O1 (stereo in doubt) [WP1276],IC50,Colo357-FG; COLO 357/FG,443 nM
same,IC50,"U87; Homo sapiens, U-87 MG",27.8 nM
COc1cccc2c1C(=O)c1c(O)c3c(c(O)c1C2=O)C[C@@](O)(C(C)=O)C[C@H]3OC1CC(NC(=O)c2cc(NC(=O)c3cc(NC(=O)c4cccn4C)cn3C)cn2C)C(O)C(C)O1 (stereo in doubt) [WP1277],IC50,Colo357-FG; COLO 357/FG,4240 nM
same,IC50,"U87; Homo sapiens, U-87 MG",105 nM
COc1cccc2c1C(=O)c1c(O)c3c(c(O)c1C2=O)C[C@](O)(C(C)=O)C[C@H]3OC1CC(NCc2ccc(NC(=O)c3cc(NC(=O)c4cc(NC(=O)c5cc(NC=O)cn5C)cn4C)cn3C)cc2)C(O)C(C)O1 (stereo in doubt) [WP1249],IC50,Colo357-FG; COLO 357/FG,51.2 nM
same,IC50,"U87; Homo sapiens, U-87 MG",7.7 nM
COc1cccc2c1C(=O)c1c(O)c3c(c(O)c1C2=O)C[C@](O)(C(C)=O)C[C@H]3OC1CC(NCc2ccc(NC(=O)c3cc(NC(=O)c4cc(NC(=O)c5cccn5C)cn4C)cn3C)cc2)C(O)C(C)O1 (stereo in doubt) [WP1243],IC50,Colo357-FG; COLO 357/FG,76.2 nM
same,IC50,"U87; Homo sapiens, U-87 MG",8.3 nM
COc1cccc2c1C(=O)c1c(O)c3c(c(O)c1C2=O)C[C@](O)(C(C)=O)C[C@H]3OC1CC(NCc2ccc(NC(=O)c3cc(NC(=O)c4cc(NC(=O)c5ccccn5)cn4C)cn3C)cc2)C(O)C(C)O1 (stereo partly shown) [WP1244],in vitro IC50 values,[1],subnanomolar range
same,IC50,D54; Homo sapiens,1.08 nM
same,IC50,Colo357-FG; COLO 357/FG,3.1 nM
same,IC50,"H441; Homo sapiens, NCI-H441",0.91 nM
same,IC50,"U87; Homo sapiens, U-87 MG",0.2 nM
same,Kp,"[2]; male, CD1, mouse, brain, 0 to 8 hour interval, read-out: fold higher concentration in brain tissue than plasma",3 to 4
same,Kp,"[2]; male, CD1, mouse, brain, over the measured interval (except 5 min timepoint), read-out: brain tissue to plasma concentration ratio",> 1
same,concentration at 24 h,"[2]; male, CD1, mouse, brain, at 24 hours, read-out: nadir brain tissue concentration",> 100 ng/g
same,Vd,"[2]; male, CD1, mouse, plasma, 2-compartment model, read-out: volume of distribution Vc",0.0097 L/kg
same,Vd,"[2]; male, CD1, mouse, plasma, 2-compartment model, read-out: volume of distribution Vp",0.326 L/kg
same,Vd,"[2]; male, CD1, mouse, plasma, 2-compartment model, read-out: volume of distribution Vss",0.336 L/kg
same,clearance,"[2]; male, CD1, mouse, plasma, 2-compartment model, read-out: Drug clearance (converted)",0.683 mL/min/kg
same,concentration at 24 h,"[2]; male, CD1, mouse, plasma, 24 hours after IV bolus injection, read-out: mean nadir plasma concentration",21.5 ng/mL
same,mean peak concentration in brain tissue,[2]; at 15 minutes post dose,915 ng/g tissue
same,Mean peak plasma concentration,[2]; five minutes after drug administration,3.7
same,area-under-the-curve,[2]; plasma,250
same,time of peak concentration in brain tissue,[2]; post dose,15 min
same,acute clinically observable toxicity,[3],no acute clinically observable toxicity
same,concentration at 1 h,"[4]; brain, read-out: mean normalized concentration in brain",122 ng/g
same,concentration at 1 h,"[4]; brain, read-out: range of normalized concentration in brain",43 to 203 ng/g
same,concentration at 1 h,"[4]; plasma, read-out: mean normalized concentration in plasma",283 ng/mL
same,concentration at 1 h,"[4]; plasma, read-out: range of normalized concentration in plasma",159 to 487 ng/mL
